Results as given in US20200262813A1, “1,5,7-TRISUBSTITUTED ISOQUINOLINE DERIVATIVES, PREPARATION THEREOF, AND USE THEREOF IN MEDICINES” (SHANGHAI HAIYAN PHARMACEUTICAL TECHNOLOGY CO., LTD., priority 2016, published 2020).

These compounds were tested against Recombinant PRC2 (EZH2-Y641F) (Homo sapiens, UniProt Q15910, Y641F) (assay: In vitro methyltransferase activity test (LANCE Ultra)). Details: EZH2 Y641F IC50, Recombinant PRC2 (EZH2-Y641F), LANCE Ultra detection, 3 hours reaction.
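Further: compounds tested as an 8-point threefold dilution series, fluorescence read after 1 h detection step at room temperature, IC50 derived from a four-parameter curve fit.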
Protocol: In Vitro Methyltransferase Activity Test
Recombinant PRC2 (EZH2-Y641F) was purchased from Active motif, S-adenosyl-methionine (SAM) and Poly-L-lysine (PLL) were purchased from Sigma-Aldrich, H3(1-50)K27mel polypeptide was purchased from Cisbio. LANCEUltra system (Perkinelmer) was used for detection. In the enzyme activity test, a compound to be tested was 1:3 diluted for 8 gradient points, added into a reaction plate, and then added 100 ng recombinant enzyme. And then a buffer [20 mM Tris pH8.5, 2 mM MgCl2, 0.01% Tween-20, 1 mM TCEP] containing 2.5 M SAM/250 nM H3(1-50)K27mel premixture was added to conduct an enzyme reaction at room tempreture. After reacted for 3 hours, a dection solution containing premixed PLL, detection antibody and Ulight was added, reacted for 1 h at RT, then fluorescence was read on Tecan infinite pro. IC50s were calculated by four-factor model fitting in a XLfit software.

Sequence of Recombinant PRC2 (EZH2-Y641F) (Q15910 whole entry Y641F): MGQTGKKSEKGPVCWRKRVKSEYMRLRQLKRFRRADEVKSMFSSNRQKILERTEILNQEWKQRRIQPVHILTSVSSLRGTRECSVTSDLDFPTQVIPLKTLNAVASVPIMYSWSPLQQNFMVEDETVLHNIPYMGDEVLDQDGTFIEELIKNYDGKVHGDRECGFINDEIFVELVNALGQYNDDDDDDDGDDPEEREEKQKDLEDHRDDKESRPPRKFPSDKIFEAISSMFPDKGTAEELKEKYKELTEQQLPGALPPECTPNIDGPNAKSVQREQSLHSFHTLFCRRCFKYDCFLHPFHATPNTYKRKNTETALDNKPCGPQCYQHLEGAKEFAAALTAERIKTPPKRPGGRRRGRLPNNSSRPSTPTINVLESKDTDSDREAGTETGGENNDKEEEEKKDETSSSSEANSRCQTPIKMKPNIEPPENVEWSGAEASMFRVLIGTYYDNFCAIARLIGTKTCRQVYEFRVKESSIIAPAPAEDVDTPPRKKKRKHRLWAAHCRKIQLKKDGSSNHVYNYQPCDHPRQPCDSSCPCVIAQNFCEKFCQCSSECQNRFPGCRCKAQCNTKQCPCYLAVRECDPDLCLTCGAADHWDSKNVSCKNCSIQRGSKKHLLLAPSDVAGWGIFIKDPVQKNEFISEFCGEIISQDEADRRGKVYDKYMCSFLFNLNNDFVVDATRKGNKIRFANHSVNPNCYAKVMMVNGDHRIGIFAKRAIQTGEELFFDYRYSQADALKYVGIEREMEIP
Sequence of Recombinant PRC2 (EZH2-Y641F) (O75530 whole entry partner): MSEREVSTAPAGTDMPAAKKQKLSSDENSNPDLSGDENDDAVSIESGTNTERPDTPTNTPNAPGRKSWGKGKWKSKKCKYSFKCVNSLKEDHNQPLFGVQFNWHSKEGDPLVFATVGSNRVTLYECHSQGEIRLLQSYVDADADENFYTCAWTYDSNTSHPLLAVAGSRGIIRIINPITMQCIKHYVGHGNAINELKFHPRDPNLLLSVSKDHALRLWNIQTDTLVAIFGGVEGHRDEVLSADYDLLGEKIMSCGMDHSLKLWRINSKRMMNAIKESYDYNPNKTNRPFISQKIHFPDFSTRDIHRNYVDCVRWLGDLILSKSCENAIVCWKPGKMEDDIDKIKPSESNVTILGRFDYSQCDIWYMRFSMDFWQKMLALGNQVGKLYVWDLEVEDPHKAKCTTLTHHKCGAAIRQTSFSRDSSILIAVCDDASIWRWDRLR
Sequence of Recombinant PRC2 (EZH2-Y641F) (Q15022 whole entry partner): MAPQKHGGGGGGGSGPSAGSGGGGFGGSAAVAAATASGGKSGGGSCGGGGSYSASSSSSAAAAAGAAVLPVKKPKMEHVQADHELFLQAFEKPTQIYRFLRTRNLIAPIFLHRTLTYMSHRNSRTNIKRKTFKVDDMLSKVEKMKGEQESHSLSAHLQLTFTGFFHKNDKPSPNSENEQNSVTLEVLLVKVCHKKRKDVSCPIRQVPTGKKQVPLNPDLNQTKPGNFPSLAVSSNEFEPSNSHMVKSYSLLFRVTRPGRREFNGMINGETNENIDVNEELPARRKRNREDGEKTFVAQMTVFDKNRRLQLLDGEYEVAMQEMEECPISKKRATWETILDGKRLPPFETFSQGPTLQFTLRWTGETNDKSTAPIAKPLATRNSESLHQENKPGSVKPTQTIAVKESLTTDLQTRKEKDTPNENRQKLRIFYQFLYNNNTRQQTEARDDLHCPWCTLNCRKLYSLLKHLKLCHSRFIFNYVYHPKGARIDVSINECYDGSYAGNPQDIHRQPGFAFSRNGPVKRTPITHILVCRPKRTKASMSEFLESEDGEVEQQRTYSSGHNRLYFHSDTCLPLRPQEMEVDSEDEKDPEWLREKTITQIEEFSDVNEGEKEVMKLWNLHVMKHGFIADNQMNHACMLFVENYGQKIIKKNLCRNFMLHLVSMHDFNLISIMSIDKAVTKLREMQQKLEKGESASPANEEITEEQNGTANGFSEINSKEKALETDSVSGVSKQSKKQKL
Sequence of Recombinant PRC2 (EZH2-Y641F) (Q09028 whole entry partner): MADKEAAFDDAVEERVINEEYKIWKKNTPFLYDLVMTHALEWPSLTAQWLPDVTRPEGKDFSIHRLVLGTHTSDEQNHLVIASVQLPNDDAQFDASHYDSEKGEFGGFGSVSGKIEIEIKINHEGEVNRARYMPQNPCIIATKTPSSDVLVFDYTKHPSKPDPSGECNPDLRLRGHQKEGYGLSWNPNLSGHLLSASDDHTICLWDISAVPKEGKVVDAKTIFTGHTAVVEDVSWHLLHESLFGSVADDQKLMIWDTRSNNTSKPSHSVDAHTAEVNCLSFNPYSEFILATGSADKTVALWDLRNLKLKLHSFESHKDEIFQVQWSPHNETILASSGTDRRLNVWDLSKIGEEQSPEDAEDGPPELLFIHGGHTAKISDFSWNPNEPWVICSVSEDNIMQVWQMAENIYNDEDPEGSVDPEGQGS
Sequence of Recombinant PRC2 (EZH2-Y641F) (Q6ZN18 whole entry partner): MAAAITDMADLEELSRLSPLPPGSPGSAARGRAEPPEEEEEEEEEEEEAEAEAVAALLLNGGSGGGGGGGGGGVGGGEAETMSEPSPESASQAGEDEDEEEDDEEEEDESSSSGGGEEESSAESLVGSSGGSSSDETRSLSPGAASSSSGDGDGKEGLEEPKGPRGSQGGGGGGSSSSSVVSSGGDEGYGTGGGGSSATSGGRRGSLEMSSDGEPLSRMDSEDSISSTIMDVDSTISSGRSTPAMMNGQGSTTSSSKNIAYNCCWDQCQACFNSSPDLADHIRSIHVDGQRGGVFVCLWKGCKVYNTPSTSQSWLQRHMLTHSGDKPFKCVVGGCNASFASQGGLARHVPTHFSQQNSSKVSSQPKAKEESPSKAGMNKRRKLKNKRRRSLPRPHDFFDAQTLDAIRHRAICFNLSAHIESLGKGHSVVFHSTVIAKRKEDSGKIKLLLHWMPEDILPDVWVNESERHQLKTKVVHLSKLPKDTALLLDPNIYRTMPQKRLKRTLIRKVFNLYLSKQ

| IC50 [nM] | SMILES |
| --- | --- |
| 453 | CCN(c1cc(C(=O)N2CCOCC2)cc2c(NCc3c(C)cc(C)[nH]c3=O)nccc12)C1CCOCC1 [Compound Z-167] |
| 451 | CCN(c1cc(C(=O)N(C)C2CCN(C)CC2)cc2c(NCc3c(C)cc(C)[nH]c3=O)nccc12)C1CCOCC1 [Compound Z-169] |
| 374 | CCN(c1cc(C(=O)N(C)C)cc2c(NCc3c(C)cc(C)[nH]c3=O)nccc12)[C@H]1CC[C@H](N(C)C)CC1 [Compound Z-170] |
| 81 | CCN(c1cc(C(=O)NC2CCN(C)CC2)cc2c(NCc3c(C)cc(C)[nH]c3=O)nccc12)C1CCC(N(C)C)CC1 (stereo not drawn) [Compound Z-172] |
| 182 | CCN(c1cc(Cl)cc2c(NCc3c(C)cc(C)[nH]c3=O)nccc12)C1CCN(C(=O)CC#N)CC1 [Compound Z-175] |
| 139 | CCN(c1cc(Cl)cc2c(NCc3c(C)cc(C)[nH]c3=O)nccc12)C1CCN(C(=O)CO)CC1 [Compound Z-176] |
| 348 | CCN(c1cc(C#CCN2CCOCC2)cc2c(NCc3c(C)cc(C)[nH]c3=O)nccc12)C1CCOCC1 [Compound Z-178] |
| 226 | CCN(c1cc(C#CCN2CCOCC2)cc2c(NCc3c(C)cc(C)[nH]c3=O)nccc12)C1CCN(C(C)=O)CC1 [Compound Z-181] |
| 504 | CCN(c1cc(Nc2cccnc2)cc2c(NCc3c(C)cc(C)[nH]c3=O)nccc12)[C@H]1CC[C@H](N(C)C)CC1 [Compound Z-182] |
| 213 | CCN(c1cc(N2CCN(C)CC2)cc2c(NCc3c(C)cc(C)[nH]c3=O)nccc12)C1CCC(N(C)C)CC1 (stereo not drawn) [Compound Z-187] |
| 307 | CCN(c1cc(N2CCN(C3CCOCC3)CC2)cc2c(NCc3c(C)cc(C)[nH]c3=O)nccc12)C1CCC(N(C)C)CC1 (stereo not drawn) [Compound Z-189] |
| 472 | CCN(c1cc(Oc2ccccc2)cc2c(NCc3c(C)cc(C)[nH]c3=O)nccc12)[C@H]1CC[C@H](N(C)C)CC1 [Compound Z-190] |
| 206 | CCN(c1cc(-c2ccc(N3CCN(C)CC3)nc2)cc2c(NCc3c(OC)cc(C)[nH]c3=O)nccc12)C1CCN(C(C)C)CC1 [Compound Z-191] |
| 24 | CCc1cc(C)[nH]c(=O)c1CNc1nccc2c(N(CC)C3CCC(N(C)C)CC3)cc(Cl)cc12 (stereo not drawn) [Compound Z-204] |
| 35 | CCN(c1cc(Cl)cc2c(NCc3c(C)cc(C)[nH]c3=O)nccc12)C1CCC(N2CCC2)CC1 (stereo not drawn) [Compound Z-205] |
| 32 | CCN(c1cc(Cl)cc2c(NCc3c(C)cc(C)[nH]c3=O)nccc12)C1CC2(CNC2)C1 [Compound Z-207] |
| 185 | CCN(c1cc(C2CCN(C)CC2)cc2c(NCc3c(C)cc(C)[nH]c3=O)nccc12)C1CCC(O)CC1 (stereo not drawn) [Compound Z-212] |
| 373 | CCN(c1cc(C(C)C)cc2c(NCc3c(C)cc(C)[nH]c3=O)nccc12)[C@H]1CC[C@H](N(C)C)CC1 [Compound Z-214] |
| 365 | CCN(c1cc(-c2ccc(N3CCN(C)CC3)nc2)cc2c(NCc3c(C)n(C)[nH]c3=O)nccc12)C1CCC(N(C)C)CC1 (stereo not drawn) [Compound Z-216, 4-((5-((4-(dimethylamino)cyclohexyl)(ethyl)amino)-7-(6-(4-methylpiperazin-1-yl)pyridine-3-yl)isoquinolin-1-ylamino)methyl)-1,5-dimethyl-H-pyrazol-3-(2H)-one] |
| 194 | CCN(c1cc(-c2cnc(N3CCN(C)CC3)nc2)cc2c(NCc3c(C)cc(C)[nH]c3=O)nccc12)C1CCC(C)(O)CC1 (stereo not drawn) [Compound Z-221, 3-((5-(ethyl(4-hydroxy-4-methylcyclohexyl)amino)-7-(2-(4-methylpiperazin-1-yl)pyrimidin-5-yl)isoquinolin-1-ylamino)methyl)-4,6-dimethyl pyridin-2(1H)-one] |
| 45 | CCN(c1cc(-c2ccc(N3CCN(C)CC3)nc2)cc2c(NCc3c(C)cc(C)[nH]c3=O)ncc(F)c12)C1CCC(N(C)C)CC1 (stereo not drawn) [Compound Z-223, 3-((5-((4-(dimethylamino)cyclohexyl)(ethyl)amino)-4-fluoro-7-(6-(4-methylpiperazin-1-yl)pyridin-3-yl)isoquinolin-1-ylamino)methyl)-4,6-dimethyl-2(1H)-one] |

Further lines, the compound ahead of its results:

| SMILES | IC50 [nM] |
| --- | --- |
| CCN(c1cc(-c2cncc(C(F)(F)F)c2)cc2c(NCc3c(C)cc(C)[nH]c3=O)nccc12)[C@H]1CC[C@H](N(C)C)CC1 [Compound Z-77] | 177 |
| CCN(c1cc(-c2ccc(Oc3cccnc3)cc2)cc2c(NCc3c(C)cc(C)[nH]c3=O)nccc12)C1CCC(N(C)C)CC1 (stereo not drawn) [Compound Z-78] | 198 |
| CCN(c1cc(-c2cnn(C3CCN(C)CC3)c2)cc2c(NCc3c(C)cc(C)[nH]c3=O)nccc12)C1CCC(N(C)C)CC1 (stereo not drawn) [Compound Z-79] | 45 |
| CCN(c1cc(-c2ccc(N3CCN(C)CC3)c(F)c2)cc2c(NCc3c(C)cc(C)[nH]c3=O)nccc12)C1CCC(N(C)C)CC1 (stereo not drawn) [Compound Z-80] | 26 |
| CCN(c1cc(-c2ccc(N3CCN(C)CC3)nc2)cc2c(NCc3c(C)cc(C)[nH]c3=O)nccc12)C1CCN(CCOC)CC1 [Compound Z-81] | 53 |
| CCN(c1cc(-c2ccc(Oc3ccncc3)cc2)cc2c(NCc3c(C)cc(C)[nH]c3=O)nccc12)C1CCC(N(C)C)CC1 (stereo not drawn) [Compound Z-83] | 244 |
| CCN(c1cc(-c2ccc(CN3CCN(C)CC3)nc2)cc2c(NCc3c(C)cc(C)[nH]c3=O)nccc12)C1CCN(C2CC2)CC1 [Compound Z-84] | 83 |
| CCN(c1cc(-c2ccc(N3CCOCC3)nc2)cc2c(NCc3c(C)cc(C)[nH]c3=O)nccc12)C1CCN(C2CC2)CC1 [Compound Z-87] | 474 |
| CCN(c1cc(-c2ccc(CN3CCOCC3)cc2)cc2c(NCc3c(C)cc(C)[nH]c3=O)nccc12)C1CCC(O)CC1 (stereo not drawn) [Compound Z-88] | 164 |
| C=C(C)c1cc(N(CC)C2CCC(N(C)C)CC2)c2ccnc(NCc3c(C)cc(C)[nH]c3=O)c2c1 (stereo not drawn) [Compound Z-109] | 182 |
| CCN(c1cc(-c2ccc(C(=O)Nc3ccccn3)cc2)cc2c(NCc3c(C)cc(C)[nH]c3=O)nccc12)C1CCC(N(C)C)CC1 (stereo not drawn) [Compound Z-110] | 67 |
| CCN(c1cc(-c2nccn2C)cc2c(NCc3c(C)cc(C)[nH]c3=O)nccc12)C1CCOCC1 [Compound Z-117] | 348 |
| CCN(c1cc(-c2ccc(C(=O)N3CCOCC3)nc2)cc2c(NCc3c(C)cc(C)[nH]c3=O)nccc12)C1CCN(C(C)C)CC1 [Compound Z-123] | 75 |
| CCN(c1cc(-c2ccc(C(=O)N3CCN(C)CC3)nc2)cc2c(NCc3c(C)cc(C)[nH]c3=O)nccc12)C1CCN(C(C)C)CC1 [Compound Z-124] | 51 |
| CCN(c1cc(-c2ccc(CN(C)C)nc2)cc2c(NCc3c(C)cc(C)[nH]c3=O)nccc12)C1CCC(N(C)C)CC1 (stereo not drawn) [Compound Z-128] | 225 |
| CCN(c1cc(C(F)(F)F)cc2c(NCc3c(C)cc(C)[nH]c3=O)nccc12)C1CCC(N(C)C)CC1 (stereo not drawn) [Compound Z-134] | 117 |
| CCN(c1cc(Cl)cc2c(NCc3c(C)cc(C)[nH]c3=O)nccc12)C1CCS(=O)(=O)CC1 [Compound Z-139] | 418 |
| CCN(c1cc(Cl)cc2c(NCc3c(C)cc(C)[nH]c3=O)nccc12)C1CCN(C(C)=O)CC1 [Compound Z-144] | 152 |

| SMILES | IC50 [nM] |
| --- | --- |
| CCN(c1cc(Cl)cc2c(NCc3c(C)cc(C)[nH]c3=O)nccc12)C1CCC(N(C)CCOC)CC1 (stereo not drawn) [Compound Z-145] | 203 |
| CCN(c1cc(Cl)cc2c(NCc3c(C)cc(C)nc3O)nccc12)[C@H]1CC[C@H](N2CC(OC)C2)CC1 [Compound Z-149] | 159 |
| CCN(c1cc(-c2ccc(N3CCNCC3)nc2)cc2c(NCc3c(C)cc(C)[nH]c3=O)nccc12)C1CCOCC1 [Compound Z-151] | 50 |
| CCN(c1cc(-c2ccc(CN3CCNCC3)nc2)cc2c(NCc3c(C)cc(C)[nH]c3=O)nccc12)C1CCOCC1 [Compound Z-152] | 96 |
| CCN(c1cc(-c2ccc(CN3CCNCC3)cc2)cc2c(NCc3c(C)cc(C)[nH]c3=O)nccc12)C1CCC(N(C)C)CC1 (stereo not drawn) [Compound Z-153] | 54 |
| CCN(c1cc(-c2ccc(CN3CCNCC3)nc2)cc2c(NCc3c(C)cc(C)[nH]c3=O)nccc12)C1CCC(N(C)C)CC1 (stereo not drawn) [Compound Z-154] | 19 |
| CCN(c1cc(-c2cn[nH]c2)cc2c(NCc3c(C)cc(C)[nH]c3=O)nccc12)C1CCC(N(C)C)CC1 (stereo not drawn) [Compound Z-155] | 159 |
| CCN(c1cc(-c2ccc(N3CCNCC3)nc2)cc2c(NCc3c(C)cc(C)[nH]c3=O)nccc12)C1CCC(NC(C)=O)CC1 (stereo not drawn) [Compound Z-156] | 37 |
| CCN(c1cc(-c2ccc(N3CCNCC3)nc2)cc2c(NCc3c(C)cc(C)[nH]c3=O)nccc12)C1CCC(N(C)C)CC1 (stereo not drawn) [Compound Z-157] | 16 |
| CCN(c1cc(-c2ccc(NC3CCN(C)CC3)cc2)cc2c(NCc3c(C)cc(C)[nH]c3=O)nccc12)C1CCOCC1 [Compound Z-158] | 367 |
| CCN(c1cc(-c2ccc(N3CCNCC3)nc2)cc2c(NCc3c(C)cc(C)[nH]c3=O)nccc12)C1CCC(O)CC1 (stereo not drawn) [Compound Z-159] | 21 |
| CCN(c1cc(-c2cnc(N3CCNCC3)nc2)cc2c(NCc3c(C)cc(C)[nH]c3=O)nccc12)[C@H]1CC[C@H](N(C)C)CC1 [Compound Z-160] | 6 |
| CCN(c1cc(C(=O)NC)cc2c(NCc3c(C)cc(C)[nH]c3=O)nccc12)C1CCOCC1 [Compound Z-161] | 331 |
| CCN(c1cc(C(=O)Nc2cccnc2)cc2c(NCc3c(C)cc(C)[nH]c3=O)nccc12)C1CCOCC1 [Compound Z-162] | 253 |
| CCN(c1cc(C(=O)NC2CCN(C)CC2)cc2c(NCc3c(C)cc(C)[nH]c3=O)nccc12)C1CCOCC1 [Compound Z-163] | 33 |
| CCN(c1cc(C(=O)Nc2ccccn2)cc2c(NCc3c(C)cc(C)[nH]c3=O)nccc12)C1CCOCC1 [Compound Z-164] | 371 |
| CCN(c1cc(C(=O)NC)cc2c(NCc3c(C)cc(C)[nH]c3=O)nccc12)[C@H]1CC[C@H](N(C)C)CC1 [Compound Z-166] | 15 |

Same assay, conditions: read-out: EZH2 Y641F IC50; Recombinant PRC2 (EZH2-Y641F), LANCE Ultra detection, 3 hours reaction

| IC50 [nM] | SMILES |
| --- | --- |
| 112 | CCN(c1cc(Oc2cccnc2)cc2c(NCc3c(C)cc(C)[nH]c3=O)nccc12)[C@H]1CC[C@H](N(C)C)CC1 [Compound Z-188] |
